The text below walks through data of US20210277003A1, “OGA INHIBITOR COMPOUNDS” (Janssen Pharmaceutica NV, priority 2018, published 2021).

Each structure is given as a SMILES string. Bounds are passed on as bounds.

Assay [1] deals with T1, recombinant human Meningioma Expressed Antigen 5 (MGEA5), also referred to as O-GlcNAcase (OGA) (Homo sapiens, UniProt O60502).
T1 construct: Full length OGA enzyme was purchased at OnGene (cat #TP322411); purchased OnGene (so in the source)
T1 sequence (O60502 1-916): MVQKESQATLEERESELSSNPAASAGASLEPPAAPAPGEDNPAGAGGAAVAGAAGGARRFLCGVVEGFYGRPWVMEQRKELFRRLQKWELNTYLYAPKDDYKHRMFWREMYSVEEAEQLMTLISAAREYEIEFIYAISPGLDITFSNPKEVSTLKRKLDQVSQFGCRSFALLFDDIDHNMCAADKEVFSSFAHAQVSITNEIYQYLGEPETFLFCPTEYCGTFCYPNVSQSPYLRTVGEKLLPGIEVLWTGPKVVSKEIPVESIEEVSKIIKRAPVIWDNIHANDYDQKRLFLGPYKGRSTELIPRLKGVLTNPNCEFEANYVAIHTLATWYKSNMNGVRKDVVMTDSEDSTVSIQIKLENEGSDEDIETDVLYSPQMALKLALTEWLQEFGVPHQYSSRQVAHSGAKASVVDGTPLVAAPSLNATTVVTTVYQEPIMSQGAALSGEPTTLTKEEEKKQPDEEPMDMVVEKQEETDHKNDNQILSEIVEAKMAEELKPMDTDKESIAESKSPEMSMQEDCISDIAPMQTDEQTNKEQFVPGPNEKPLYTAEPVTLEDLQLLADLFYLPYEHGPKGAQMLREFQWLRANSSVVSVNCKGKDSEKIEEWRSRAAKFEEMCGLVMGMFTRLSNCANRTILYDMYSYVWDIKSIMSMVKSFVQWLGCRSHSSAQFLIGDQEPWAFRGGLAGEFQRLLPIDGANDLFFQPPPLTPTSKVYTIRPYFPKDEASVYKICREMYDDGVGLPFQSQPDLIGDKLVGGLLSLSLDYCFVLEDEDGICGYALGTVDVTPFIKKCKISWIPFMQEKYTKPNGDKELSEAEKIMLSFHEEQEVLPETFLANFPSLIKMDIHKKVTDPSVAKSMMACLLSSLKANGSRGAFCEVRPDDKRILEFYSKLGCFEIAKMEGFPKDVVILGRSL
Put plainly: OGA biochemical assay: inhibition of hydrolysis of fluorescein mono-ß-D-N-Acetyl-Glucosamine (FM-GlcNAc), fluorescence readout. The conditions noted are these: FM-GlcNAc substrate; for Emax: read-out: Enzymatic Emax (%); for IC50: read-out: Enzymatic hOGA, pIC50 (converted). Put shortly:
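Full-length recombinant human OGA (2 nM) was pre-incubated with compound for 60 min, then reacted with 100 uM FM-GlcNAc for 6 h at room temperature in 200 mM citrate/phosphate pH 7.2 with 0.005% Tween-20. Reactions were stopped with pH 11.0 carbonate and fluorescein read at 485/538 nm. IC50 and Hill coefficient came from curve fitting.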

Assay [2] has as its system OGA in HEK293 cells inducible for P301L mutant human Tau (isoform 2N4R). Put plainly: OGA cellular assay: immunocytochemical detection of O-GlcNAcylated proteins (CTD110.6 antibody). The conditions noted are these: Homo sapiens, HEK293, 6 h, 6 hours incubation; for Emax: maximum = Thiamet G 200 uM; for EC50: read-out: Cellular hOGA, pEC50 (converted). Type of assay: cell-based. Put shortly: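 Cells seeded 2 days ahead in low-glucose assay medium and exposed to compounds for 6 h at 0.2% DMSO, then PFA-fixed and immunostained. Signal is 488 nm intensity from imaging (9 fields/well), with Hoechst nuclei counts as a toxicity check. IC50 from non-linear regression, with 200 uM Thiamet G per plate as maximum inhibition.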

As to `Cn1cnc(-n2ccc3c(Nc4c(Cl)cccc4Cl)nccc32)c1` [Compound 167], in assay [1], the maximal response (Emax) (as a rule, the greatest response seen or fitted, relative to the assay's reference) was 102% and the IC50 was 17 nM. Moreover, in assay [2], the maximal response (Emax) came to 81.9% and the EC50 was roughly 224 nM.

With `CCCCn1ccc2c(Nc3c(C)cncc3C)nccc21` [Compound 52], in assay [1], the Emax is 103% and the IC50 is 9.55 nM. Also, in assay [2], the Emax was determined as 72% and the EC50 is 26.9 nM.

Take `Cc1cc(Cn2ccc3c(Nc4c(Cl)cc(F)cc4Cl)nccc32)no1` [Compound 158]: in assay [1], the “Enzymatic hOGA; pIC50” value came to 8.58 and the Emax was found to be 101%. Also, in assay [2], the maximum response (Emax) stood at 71% and the EC50 was 63.1 nM.

As for `CC[C@@H](O)Cn1ccc2c(Nc3c(C)cc(C(F)(F)F)cc3C)nccc21` [Compound 124a], in assay [1], the “Enzymatic hOGA; pIC50” value is 7.88 and the Emax is 103%. Moreover, in assay [2], the maximum response (Emax) was 74.7% and the EC50 was 21.9 nM.

As to `Cc1cc(F)c(F)c(C)c1Nc1nccc2c1ccn2CC(C)(F)F` [Compound 153], in assay [1], the “Enzymatic hOGA; pIC50” value worked out at 8.52 and the Emax turned out to be 102%. Besides, in assay [2], the maximal effect (Emax) came out at 74.1% and the EC50 was 20.4 nM.

As for `Cc1ccnc(C(F)(F)F)c1Nc1nccc2c1ccn2CCC1CC1` [Compound 197], in assay [1], the Emax was 104% and the IC50 is 4.9 nM. Further, in assay [2], the Emax was determined as 86.3% and the EC50 is 56.2 nM.

Take `Cc1ccnc(C)c1Nc1nccc2c1ccn2CCC(C)C` [Compound 47]: in assay [1], the maximum response (Emax) was determined as 101% and the IC50 was 11.7 nM. Further, in assay [2], the maximal response (Emax) was found to be 95% and the EC50 is 47.9 nM.

Regarding `Cc1ccnc(C)c1Nc1nccc2c1ccn2CC(F)(F)C(C)C` [Compound 202], in assay [1], the Emax amounted to 101% and the IC50 is 3.09 nM. For the same compound, in assay [2], the Emax worked out at 88.1% and the EC50 is 3.63 nM.

As to `Fc1cc(Cl)c(Nc2nccc3c2ccn3CC2CCOC2)c(Cl)c1` (stereo not shown) [Compound 139], in assay [1], the “Enzymatic hOGA; pIC50” value is 7.8 and the Emax amounted to 104%. In addition, in assay [2], the Emax came to 69.7% and the EC50 was 398 nM.

As to `Cc1ccnc(C(C)C)c1Nc1nccc2c1ccn2CC(C)(F)F` [Compound 147], in assay [1], the “Enzymatic hOGA; pIC50” value is on record as 8.81 and the Emax came out at 98.6%. In assay [2], the Emax came to 90.9% and the EC50 is roughly 4.47 nM.

As to `COCCn1ccc2c(Nc3c(Cl)cccc3Cl)nccc21` [Compound 40], in assay [1], the Emax came to 102% and the IC50 is 81.3 nM. In assay [2], the Emax came to 30% and the EC50 was greater than 1000 nM.

As to `CCC(F)(F)Cn1ccc2c(Nc3c(C)ccnc3C)nccc21` [Compound 27], in assay [1], the Emax is 104% and the IC50 is 2.24 nM. Moreover, in assay [2], the Emax stood at 112% and the EC50 was 7.59 nM.

Turning to `Cc1ccnc(C(F)F)c1Nc1nccc2c1ccn2CC1CC(F)(F)C1` [Compound 115], in assay [1], the “Enzymatic hOGA; pIC50” value amounted to 7.2 and the maximal effect (Emax) turned out to be 99.6%. In assay [2], the maximal response (Emax) came to 52.3% and the EC50 is roughly 891 nM.

For the compound `Cc1cc(F)cc(Cl)c1Nc1nccc2c1ccn2CC(C)(F)F` [Compound 151], in assay [1], the “Enzymatic hOGA; pIC50” value amounted to 8.61 and the Emax was 100%. In addition, in assay [2], the Emax turned out to be 102% and the EC50 was 10.2 nM.

On to `CCCCn1ccc2c(Nc3c(C)cc(-c4cnn(C)c4)cc3C)nccc21` [Compound 54], for which, in assay [1], the Emax was 104% and the IC50 is 2.04 nM. Also, in assay [2], the Emax was determined as 82% and the EC50 was 20.9 nM.

With `Cc1cc(Cl)cc(C(F)(F)F)c1Nc1nccc2c1ccn2CC(C)(F)F` [Compound 129], in assay [1], the “Enzymatic hOGA; pIC50” value is on record as 8.59 and the maximum response (Emax) came out at 100%. In assay [2], the maximal effect (Emax) is 104% and the EC50 was 7.41 nM.

On to `CCCCn1ccc2c(Nc3c(C)cc(C(=O)N(C)C)cc3C)nccc21` [Compound 61], for which, in assay [1], the Emax was found to be 103% and the IC50 is 3.72 nM. Moreover, in assay [2], the maximum response (Emax) was determined as 92% and the EC50 is 5.89 nM.

Consider `CCCCn1ccc2c(Nc3c(C)ccc(C(=O)NC)c3C)nccc21` [Compound 58], for which, in assay [1], the Emax amounted to 101% and the IC50 was 3.09 nM. Moreover, in assay [2], the Emax came out at 88% and the EC50 was 72.4 nM.

Regarding `Cc1ccnc(C)c1Nc1nccc2c1ccn2CC1(F)CC1` [Compound 204], in assay [1], the Emax was determined as 101% and the IC50 is 57.5 nM. In addition, in assay [2], the Emax was 76.1% and the EC50 is 269 nM.

With `CC[C@H](O)Cn1ccc2c(Nc3c(C)cc(C#N)cc3Cl)nccc21` [Compound 123b], in assay [1], the “Enzymatic hOGA; pIC50” value stood at 7.53 and the Emax was 99.2%. Besides, in assay [2], the Emax was found to be 71.1% and the EC50 was 100 nM.

For `Cc1ccnc(C)c1Nc1nccc2c1ccn2CC(C)O` (stereo not shown) [Compound 144], in assay [1], the “Enzymatic hOGA; pIC50” value is reported as 7.25 and the Emax was 100%. In addition, in assay [2], the Emax was determined as 79% and the EC50 was 182 nM.

Regarding `Clc1cccc(Cl)c1Nc1nccc2c1ccn2Cc1ncco1` [Compound 169], in assay [1], the Emax worked out at 104% and the IC50 is 12 nM. In addition, in assay [2], the maximum response (Emax) is 67.5% and the EC50 is 550 nM.

For the compound `Cc1ccnc(C)c1Nc1nccc2c1ccn2CC1CCO1` (stereo not shown) [Compound 25], in assay [1], the Emax was found to be 104% and the IC50 is 4.79 nM. Moreover, in assay [2], the maximal effect (Emax) is 89% and the EC50 was 38 nM.

Take `Cc1ccnc(C(C)C)c1Nc1nccc2c1ccn2CC1CCOC1` (stereo not shown) [Compound 141]: in assay [1], the “Enzymatic hOGA; pIC50” value is recorded as 7.76 and the Emax is 103%. Moreover, in assay [2], the Emax was 74.7% and the EC50 was 107 nM.

Consider `CCCCn1ccc2c(Nc3c(Cl)ccc4c3CCO4)nccc21` [Compound 8], for which, in assay [1], the “Enzymatic hOGA; pIC50” value worked out at 8.11 and the Emax was 102%. For the same compound, in assay [2], the Emax turned out to be 87% and the EC50 is 110 nM.

`FC(F)(F)CCn1ccc2c(Nc3c(Cl)cccc3Cl)nccc21` [Compound 200]: in assay [1], the Emax came out at 103% and the IC50 is 23.4 nM. Further, in assay [2], the Emax amounted to 70.1% and the EC50 is 513 nM.

Take `CCCCn1ccc2c(Nc3c(C)cc(CF)cc3C)nccc21` [Compound 101]: in assay [1], the Emax was 103% and the IC50 is 3.24 nM. Besides, in assay [2], the Emax turned out to be 83% and the EC50 was 57.5 nM.

For `Cc1c(F)cnc(C(C)C)c1Nc1nccc2c1ccn2CC1CCO1` (stereo not shown) [Compound 127], in assay [1], the “Enzymatic hOGA; pIC50” value came out at 8.75 and the Emax was found to be 103%. Besides, in assay [2], the Emax was 76.7% and the EC50 is 11.5 nM.

In the case of `CCCCn1ccc2c(Nc3c(C)cc4c(cnn4C)c3C)nccc21` [Compound 87], in assay [1], the Emax was 102% and the IC50 was 4.79 nM. Moreover, in assay [2], the Emax was 87% and the EC50 was 12.9 nM.

As for `CCCCn1ccc2c(Nc3c(C)cncc3C(F)(F)F)nccc21` [Compound 86], in assay [1], the Emax came to 101% and the IC50 is 21.9 nM. In assay [2], the Emax came to 71% and the EC50 was 309 nM.

For the compound `CCCCn1ccc2c(Nc3c(Cl)cnc4c3OCCO4)nccc21` [Compound 18], in assay [1], the “Enzymatic hOGA; pIC50” value stood at 7.46 and the Emax was found to be 102%. Besides, in assay [2], the maximum response (Emax) worked out at 62% and the EC50 is 575 nM.
